“And” between values parts separate entries of the source, which are not always exact repeats. Equal entries are not always repeated. Non-standard residues stand in square brackets, D forms with d. Residues, ends and D or L forms follow the SMILES beside them. ξ: configuration not given here. Ile(3ξ) = CCC(C)[C@H](N)C(=O)O
Legend:
VIP peptides [1] = biological target: T1, VIP peptides (Homo sapiens, UniProt P01282)
T1 sequence (P01282 whole entry): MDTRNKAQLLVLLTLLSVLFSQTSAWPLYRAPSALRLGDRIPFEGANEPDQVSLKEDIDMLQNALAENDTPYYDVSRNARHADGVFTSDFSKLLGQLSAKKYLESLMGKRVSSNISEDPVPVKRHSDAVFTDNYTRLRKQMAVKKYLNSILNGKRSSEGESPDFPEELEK

VIP peptides [2] = biological target: T2, VIP peptides (Rattus norvegicus, UniProt P01283)
T2 sequence (P01283 whole entry): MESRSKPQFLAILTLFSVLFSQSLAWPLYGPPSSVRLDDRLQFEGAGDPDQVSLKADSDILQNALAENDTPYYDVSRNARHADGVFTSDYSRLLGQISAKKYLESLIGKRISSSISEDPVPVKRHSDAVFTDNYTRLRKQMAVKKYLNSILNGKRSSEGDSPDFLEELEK

Ki (VIP peptides [1]) [nM]	Ki (VIP peptides [2])	Compound
–	0.9 nM and 0.3 nM	CC[C@H](C)[C@H](NC(=O)CNC(=O)[C@H](CC(=O)O)NC(=O)[C@H](CO)NC(=O)[C@@H](N)Cc1cnc[nH]1)C(=O)N[C@@H](Cc1ccccc1)C(=O)N[C@H](C(=O)N[C@@H](CC(=O)O)C(=O)N[C@@H](CO)C(=O)N[C@@H](Cc1ccc(O)cc1)C(=O)N[C@@H](CO)C(=O)N[C@@H](CCCNC(=N)N)C(=O)N[C@@H](Cc1ccc(O)cc1)C(=O)N[C@@H](CCCNC(=N)N)C(=O)N[C@@H](CCCCN)C(=O)N[C@@H](CCC(N)=O)C(=O)N[C@@H](CCSC)C(=O)N[C@@H](C)C(=O)N[C@H](C(=O)N[C@@H](CCCCN)C(=O)N[C@@H](CCCCN)C(=O)N[C@@H](Cc1ccc(O)cc1)C(=O)N[C@@H](CC(C)C)C(=O)N[C@@H](C)C(=O)N[C@@H](C)C(=O)N[C@H](C(=O)N[C@@H](CC(C)C)C(=O)NCC(=O)N[C@@H](CCCCN)C(=O)N[C@@H](CCCNC(=N)N)C(=O)N[C@@H](Cc1ccc(O)cc1)C(=O)N[C@@H](CCCCN)C(=O)N[C@@H](CCC(N)=O)C(=O)N[C@@H](CCCNC(=N)N)C(=O)N[C@H](C(=O)N[C@@H](CCCCN)C(=O)N[C@@H](CC(N)=O)C(=O)N[C@@H](CCCCN)C(N)=O)C(C)C)C(C)C)C(C)C)[C@@H](C)O [PACAP]
100	–	H-HSDAVFTDNYTRLRKQMAVKKYLAAVL-NH2 [VIP-PACAP]
40	–	H-HSDAVFTDNYTRYRKQMAVKKYLNSILN-OH [[Tyr13]VIP]
50	–	H-HSDAVFTDSYTRLRKQMAVKKYLNSILN-NH2 [[Ser9]VIP]

Further lines, the compound ahead of its results:

Compound	Ki (VIP peptides [1]) [nM]	Ki (VIP peptides [2])
CC[C@H](C)[C@H](NC(=O)[C@H](CO)NC(=O)[C@H](CC(N)=O)NC(=O)[C@H](CC(C)C)NC(=O)[C@H](Cc1ccc(O)cc1)NC(=O)[C@H](CCCCN)NC(=O)[C@H](CCCCN)NC(=O)[C@@H](NC(=O)[C@H](C)NC(=O)[C@H](CCSC)NC(=O)[C@H](CCC(N)=O)NC(=O)[C@H](CCCCN)NC(=O)[C@H](CCCN=C(N)N)NC(=O)[C@H](CC(C)C)NC(=O)[C@H](CCCN=C(N)N)NC(=O)[C@@H](NC(=O)[C@H](Cc1ccc(O)cc1)NC(=O)[C@H](CC(N)=O)NC(=O)[C@H](CC(=O)O)NC(=O)[C@@H](NC(=O)[C@H](Cc1ccccc1)NC(=O)[C@@H](NC(=O)[C@H](C)NC(=O)[C@H](CC(=O)O)NC(=O)[C@H](CO)NC(=O)[C@@H](N)Cc1cnc[nH]1)C(C)C)[C@@H](C)O)[C@@H](C)O)C(C)C)C(=O)N[C@@H](CC(C)C)C(=O)N[C@@H](CC(N)=O)C(=O)O [CAS_37221-79-7]	150	–
CC[C@H](C)[C@H](NC(=O)CNC(=O)[C@H](CCC(=O)O)NC(=O)[C@H](CO)NC(=O)[C@@H](N)Cc1cnc[nH]1)C(=O)N[C@@H](Cc1ccccc1)C(=O)N[C@H](C(=O)N[C@@H](CC(=O)O)C(=O)N[C@@H](CO)C(=O)N[C@@H](Cc1ccc(O)cc1)C(=O)N[C@@H](CO)C(=O)N[C@@H](CCCNC(=N)N)C(=O)N[C@@H](Cc1ccc(O)cc1)C(=O)N[C@@H](CCCNC(=N)N)C(=O)N[C@@H](CCCCN)C(=O)N[C@@H](CCC(N)=O)C(=O)N[C@@H](CCSC)C(=O)N[C@@H](C)C(=O)N[C@H](C(=O)N[C@@H](CCCCN)C(=O)N[C@@H](CCCCN)C(=O)N[C@@H](Cc1ccc(O)cc1)C(=O)N[C@@H](CC(C)C)C(=O)N[C@@H](C)C(=O)N[C@@H](C)C(=O)N[C@H](C(=O)N[C@@H](CC(C)C)C(N)=O)C(C)C)C(C)C)[C@@H](C)O [PACAP(1-27)]	0.3	1.5 nM and 0.5 nM and 1 nM
[C][C][C]([C])[C@H]([N]C(=O)[C][N]C(=O)[C@H]([C][C]C([O])=O)[N]C(=O)[C@@H]([N])[C][O])C(=O)[N][C@@H]([C]c1ccccc1)C(=O)[N][C@H](C(=O)[N][C@@H]([C]C([O])=O)C(=O)[N][C@@H]([C][O])C(=O)[N][C@@H]([C]c1ccc([O])cc1)C(=O)[N][C@@H]([C][O])C(=O)[N][C@@H]([C][C][C]N=C([N])[N])C(=O)[N][C@@H]([C]c1ccc([O])cc1)C(=O)[N][C@@H]([C][C][C]N=C([N])[N])C(=O)[N][C@@H]([C][C][C][C][N])C(=O)[N][C@@H]([C][C]C([N])=O)C(=O)[N][C@@H]([C][C]S[C])C(=O)[N][C@@H]([C])C(=O)[N][C@@H]([C]([C])[C])C(=O)[N][C@@H]([C][C][C][C][N])C(=O)[N][C@@H]([C][C][C][C][N])C(=O)[N][C@@H]([C]c1ccc([O])cc1)C(=O)[N][C@@H]([C][C]([C])[C])C(=O)[N][C@@H]([C])C(=O)[N][C@@H]([C])C(=O)[N][C@@H]([C]([C])[C])C(=O)[N][C@@H]([C][C]([C])[C])C([N])=O)[C@@H]([C])[O] [PACAP(2-27)]	20	400 nM and 40 nM
CCC(C)[C@H](NC(=O)CNC(=O)[C@H](CC(=O)O)NC(=O)[C@@H](N)CO)C(=O)N[C@@H](Cc1ccccc1)C(=O)N[C@H](C(=O)N[C@@H](CC(=O)O)C(=O)N[C@@H](CO)C(=O)N[C@@H](Cc1ccc(O)cc1)C(=O)N[C@@H](CO)C(=O)N[C@@H](CCCN=C(N)N)C(=O)N[C@@H](Cc1ccc(O)cc1)C(=O)N[C@@H](CCCN=C(N)N)C(=O)N[C@@H](CCCCN)C(=O)N[C@@H](CCC(N)=O)C(=O)N[C@@H](CCSC)C(=O)N[C@@H](C)C(=O)N[C@H](C(=O)N[C@@H](CCCCN)C(=O)N[C@@H](CCCCN)C(=O)N[C@@H](Cc1ccc(O)cc1)C(=O)N[C@@H](CC(C)C)C(=O)N[C@@H](C)C(=O)N[C@@H](C)C(=O)N[C@H](C(=O)N[C@@H](CC(C)C)C(=O)NCC(=O)N[C@@H](CCCCN)C(=O)N[C@@H](CCCN=C(N)N)C(=O)N[C@@H](Cc1ccc(O)cc1)C(=O)N[C@@H](CCCCN)C(=O)N[C@@H](CCC(N)=O)C(=O)N[C@@H](CCCN=C(N)N)C(=O)N[C@H](C(=O)N[C@@H](CCCCN)C(=O)N[C@@H](CC(N)=O)C(=O)N[C@@H](CCCCN)C(N)=O)C(C)C)C(C)C)C(C)C)[C@@H](C)O (stereo partly drawn) [PACAP(2-38)] (H-SDG[Ile(3ξ)]FTDSYSRYRKQMAVKKYLAAVLGKRYKQRVKNK-NH2)	2	10 nM and 4 nM and 30 nM
H-HSDAVFTDSYTRYRKQMAVKKYLNSILN-NH2 [[Ser9,Tyr13]VIP]	15	–
H-HSDGIFTDSYTRLRKQMAVKKYLNSILN-OH [PACAP-VIP]	8	–

Source: BindingDB's records for doi:10.1111/j.1432-1033.1991.tb15734.x (Universit&Eacute, 1991)
